Source: the NIST ThermoML archive (doi:10.1016/j.fluid.2012.09.038)
± gives the expanded uncertainty stated by the source.

Assays:
[1] = 101.33 kPa, Liquid, Vibrating tube method
[2] = refractive index (Na D-line) (dimensionless); conditions: 101.33 kPa, Liquid, Standard Abbe refractometry

## CC(=O)OCCC(C)C [3-methylbutyl ethanoate]
[1]; 298.2 K
  mass density: 866.7 ± 0.2 kg/m3
[2]; 298.2 K
  refractive index: 1.3975 ± 0.0008

## CC(=O)CCC(C)C [5-methyl-2-hexanone]
[1]; 293.2 K
  mass density: 887.9 ± 0.2 kg/m3
[2]; 293.2 K
  refractive index: 1.4049 ± 0.0008

## O [water]
[2]; 298.2 K
  refractive index: 1.3324 ± 0.0008
